Tests used:
Carbonic anhydrase 2 [1] = biological target: T1, Carbonic anhydrase 2 (Homo sapiens, UniProt P00918); assay: Dissociation constant was determined against human carbonic anhydrase II at 37 degree Celsius in experiment 1
Carbonic anhydrase 2 [2] = biological target: T1, Carbonic anhydrase 2; assay: Dissociation constant was determined against human carbonic anhydrase II at 37 degree Centigrade in experiment 2
Carbonic anhydrase 2 [3] = biological target: T1, Carbonic anhydrase 2
Description: Kinetic constant for binding human carbonic anhydrase II

Kd (Carbonic anhydrase 2 [1]): 310 nM
Kd (Carbonic anhydrase 2 [2]): 330 nM
k off (Carbonic anhydrase 2 [3]): 0.12 s⁻¹
Compound: NS(=O)(=O)c1ccc(C(=O)NCC(=O)O)cc1

Reference: ChEMBL document CHEMBL1128987, “Benzenesulfonamide-peptide conjugates as probes for secondary binding sites near the active site of carbonic anhydrase” (Bioorg Med Chem Lett, 1996)
